# Experimental data taken from patent publication US8648081B2 (Eli Lilly and Company, priority 2011, dated 2014).
# Test system: Lone star tick larvae (Amblyomma americanum)
# Experiment: In Vitro Larval Immersion Microassay (LIM)
# Settings: read-out: % Efficacy (percent larval mortality)
# Experimental: In Vitro Larval Immersion Microassay (LIM)
# The larval immersion microassay may be conducted as described in White, et al., J. Med. Entomol. […] Briefly, experimental test articles are formulated in dimethylsulfoxide (DMSO) to prepare a stock solution at a concentration of 10 mM. […] Approximately 30-50 Lone star tick larvae (Amblyomma americanum) are submerged into each well containing experimental test articles. After a 30 minute immersion period, larvae are removed with a wide-bore pipette tip in 0.05 ml of fluid, dispensed into a commercial paper tissue biopsy bag which is sealed at the top with a plastic dialysis clip, inverted and allowed to air dry for 60 minutes. Bags containing larvae are then incubated at approximately 27 degrees Celsius and >90% relative humidity. After 24 hours, bags are opened, live and dead larvae are counted and percent larval mortality is calculated as follows: % Efficacy=(# dead larvae)/(# total larvae)×100.
row,SMILES,mortality at 300 µM
1,"O=C(N[C@@H]1CCNC1=O)c1sc(C2=NOC(c3cc(Cl)c(F)c(Cl)c3)(C(F)(F)F)C2)c2c1CCC2 (stereo partly drawn) [Example 58, 3-(5-(3,5-dichloro-4-fluorophenyl)-5-(trifluoromethyl)-4,5-dihydroisoxazol-3-yl)-N-((R)-2-oxopyrrolidin-3-yl)-5,6-dihydro-4H-cyclopenta[c] thiophene-1-carboxamide]",≥ 80%
2,"N#CCNC(=O)CNC(=O)c1sc(C2=NOC(c3cc(Cl)c(F)c(Cl)c3)(C(F)(F)F)C2)c2c1CCC2 (stereo not shown) [Example 59, N-(2-(cyanomethyl-amino)-2-oxoethyl)-3-(5-(3,5-dichloro-4-fluorophenyl)-5-(trifluoromethyl)-4,5-dihydroisoxazol-3-yl)-5,6-dihydro-4H-cyclopenta[c] thiophene-1-carboxamide]",≥ 80%
3,"O=C(NC1CCN(CC(F)(F)F)C1=O)c1sc(C2=NOC(c3cc(Cl)c(F)c(Cl)c3)(C(F)(F)F)C2)c2c1CCC2 (stereo not shown) [Example 60, 3-(5-(3,5-dichloro-4-fluorophenyl)-5-(trifluoromethyl)-4,5-dihydroisoxazol-3-yl)-N-(2-oxo-1-(2,2,2-trifluoroethyl)pyrrolidin-3-yl)-5,6-dihydro-4H-cyclopenta[c] thiophene-1-carboxamide]",≥ 80%
4,"C#CCNC(=O)CNC(=O)c1sc(C2=NOC(c3cc(Cl)c(F)c(Cl)c3)(C(F)(F)F)C2)c2c1CCC2 (stereo not shown) [Example 61, 3-(5-(3,5-dichloro-4-fluorophenyl)-5-(trifluoromethyl)-4,5-dihydroisoxazol-3-yl)-N-(2-oxo-2-(prop-2-ynylamino)ethyl)-5,6-dihydro-4H-cyclopenta[c] thiophene-1-carboxamide]",≥ 80%
5,"O=C(CNC(=O)c1sc(C2=NOC(c3cc(Cl)cc(Cl)c3)(C(F)(F)F)C2)c2c1CCCC2)NCC(F)(F)F (stereo not shown) [Example 62, 3-(5-(3,5-dichloro-phenyl)-5-(trifluoro-methyl)-4,5-dihydro-isoxazol-3-yl)-N-(2-oxo-2-(2,2,2-trifluoroethylamino)ethyl)-4,5,6,7-tetrahydrobenzo[c] thiophene-1-carboxamide]",≥ 80%
6,"CCNC(=O)CNC(=O)c1sc(C2=NOC(c3cc(Cl)cc(Cl)c3)(C(F)(F)F)C2)c2c1CCCC2 (stereo not shown) [Example 63, 3-(5-(3,5-dichloro-phenyl)-5-(trifluoro-methyl)-4,5-dihydro-isoxazol-3-yl)-N-(2-(ethylamino)-2-oxoethyl)-4,5,6,7-tetrahydrobenzo [c]thiophene-1-carboxamide]",≥ 80%
7,"O=C(NCC1CCCO1)c1sc(C2=NOC(c3cc(Cl)cc(Cl)c3)(C(F)(F)F)C2)c2c1CCCC2 (stereo not shown) [Example 64, 3-(5-(3,5-dichloro-phenyl)-5-(trifluoro-methyl)-4,5-dihydro-isoxazol-3-yl)-N-((tetrahydrofuran-2-yl)methyl)-4,5,6,7-tetrahydro-benzo[c]thiophene-1-carboxamide]",≥ 80%
8,"CSCCNC(=O)c1sc(C2=NOC(c3cc(Cl)cc(Cl)c3)(C(F)(F)F)C2)c2c1CCCC2 (stereo not shown) [Example 65, 3-(5-(3,5-dichloro-phenyl)-5-(trifluoro-methyl)-4,5-dihydro-isoxazol-3-yl)-N-(2-(methylthio)ethyl)-4,5,6,7-tetra-hydrobenzo[c] thiophene-1-carboxamide]",≥ 80%
9,"O=C(NCCC(F)(F)F)c1sc(C2=NOC(c3cc(Cl)cc(Cl)c3)(C(F)(F)F)C2)c2c1CCCC2 (stereo not shown) [Example 66, 3-(5-(3,5-dichloro-phenyl)-5-(trifluoro-methyl)-4,5-dihydro-isoxazol-3-yl)-N-(3,3,3-trifluoropropyl)-4,5,6,7-tetrahydrobenzo[c] thiophene-1-carboxamide]",≥ 80%
10,"O=C(NC1CCCC(O)C1)c1sc(C2=NOC(c3cc(Cl)cc(Cl)c3)(C(F)(F)F)C2)c2c1CCCC2 (stereo not shown) [Example 67, 3-(5-(3,5-dichloro-phenyl)-5-(trifluoro-methyl)-4,5-dihydro-isoxazol-3-yl)-N-(3-hydroxycyclohexyl)-4,5,6,7-tetrahydrobenzo [c]thiophene-1-carboxamide]",≥ 80%
11,"O=C(Nc1ccc(F)cn1)c1sc(C2=NOC(c3cc(Cl)cc(Cl)c3)(C(F)(F)F)C2)c2c1CCCC2 (stereo not shown) [Example 68, 3-(5-(3,5-dichloro-phenyl)-5-(trifluoro-methyl)-4,5-dihydro-isoxazol-3-yl)-N-(5-fluoropyridin-2-yl)-4,5,6,7-tetrahydro-benzo[c]thiophene-1-carboxamide]",≥ 80%
12,O=C(NC1CCCOC1)c1sc(C2=NOC(c3cc(Cl)cc(Cl)c3)(C(F)(F)F)C2)c2c1CCCC2 (stereo not shown) [Example 69],≥ 80%
13,"O=C(NC1CSC1)c1sc(C2=NOC(c3cc(Cl)cc(Cl)c3)(C(F)(F)F)C2)c2c1CCCC2 (stereo not shown) [Example 70, 3-(5-(3,5-dichloro-phenyl)-5-(trifluoro-methyl)-4,5-dihydro-isoxazol-3-yl)-N-(thietan-3-yl)-4,5,6,7-tetrahydrobenzo[c] thiophene-1-carboxamide]",≥ 80%
14,"O=C(NC1CCOCC1)c1sc(C2=NOC(c3cc(Cl)cc(Cl)c3)(C(F)(F)F)C2)c2c1CCCC2 (stereo not shown) [Example 71, 3-(5-(3,5-dichloro-phenyl)-5-(trifluoro-methyl)-4,5-dihydro-isoxazol-3-yl)-N-(tetrahydro-2H-pyran-4-yl)-4,5,6,7-tetrahydrobenzo [c]thiophene-1-carboxamide]",≥ 80%
15,O=C(NC1CCN(C2CC2)C1=O)c1sc(C2=NOC(c3cc(Cl)cc(Cl)c3)(C(F)(F)F)C2)c2c1CCCC2 (stereo not shown) [Example 72],≥ 80%
16,"O=C(NC1CCS(=O)(=O)CC1)c1sc(C2=NOC(c3cc(Cl)c(Cl)c(Cl)c3)(C(F)(F)F)C2)c2c1CCCC2 (stereo not shown) [Example 75, 3-[5-(3,4,5-Trichloro-phenyl)-5-trifluoro-methyl-4,5-dihydro-isoxazol-3-yl]-4,5,6,7-tetrahydro-benzo[c]thiophene-1-carboxylic acid (1,1-dioxo-hexahydro-thiopyran-4-yl)-amide]",≥ 80%
17,"O=C(NC1CCN(CC(F)(F)F)C1=O)c1sc(C2=NOC(c3cc(Cl)c(Cl)c(Cl)c3)(C(F)(F)F)C2)c2c1CCCC2 (stereo not shown) [Example 76, N-(2-oxo-1-(2,2,2-trifluoroethyl)pyrrolidin-3-yl)-3-(5-(3,4,5-trichloro-phenyl)-5-(trifluoro-methyl)-4,5-dihydro-isoxazol-3-yl)-4,5,6,7-tetrahydro-benzo[c]thiophene-1-carboxamide]",≥ 80%
18,"O=C(NC1CCOCC1)c1sc(C2=NOC(c3cc(Cl)c(Cl)c(Cl)c3)(C(F)(F)F)C2)c2c1CCCC2 (stereo not shown) [Example 77, N-(tetrahydro-2H-pyran-4-yl)-3-(5-(3,4,5-trichlorophenyl)-5-(trifluoromethyl)-4,5-dihydroisoxazol-3-yl)-4,5,6,7-tetrahydrobenzo[c] thiophene-1-carboxamide]",≥ 80%
19,"O=C(NC1CCN(C2CC2)C1=O)c1sc(C2=NOC(c3cc(Cl)c(Cl)c(Cl)c3)(C(F)(F)F)C2)c2c1CCCC2 (stereo not shown) [Example 78, N-(1-cyclopropyl-2-oxopyrrolidin-3-yl)-3-(5-(3,4,5-trichloro-phenyl)-5-(trifluoro-methyl)-4,5-dihydro-isoxazol-3-yl)-4,5,6,7-tetrahydrobenzo[c] thiophene-1-carboxamide]",≥ 80%
20,"O=C(NC1CS(=O)(=O)C1)c1sc(C2=NOC(c3cc(Cl)c(F)c(Cl)c3)(C(F)(F)F)C2)c2c1CCCC2 (stereo not shown) [Example 79, 3-[5-(3,5-Dichloro-4-fluoro-phenyl)-5-trifluoromethyl-4,5-dihydro-isoxazol-3-yl]-4,5,6,7-tetrahydro-benzo[c]thiophene-1-carboxylic acid (1,1-dioxo-thietan-3-yl)-amide]",≥ 80%
21,"O=C(NC1CCS(=O)(=O)CC1)c1sc(C2=NOC(c3cc(Cl)c(F)c(Cl)c3)(C(F)(F)F)C2)c2c1CCCC2 (stereo not shown) [Example 80, 3-[5-(3,5-Dichloro-4-fluoro-phenyl)-5-trifluoromethyl-4,5-dihydro-isoxazol-3-yl]-4,5,6,7-tetrahydro-benzo[c] thiophene-1-carboxylic acid (1,1-dioxo-hexahydro-thiopyran-4-yl)-amide]",≥ 80%
22,"O=C1CCC(NC(=O)c2sc(C3=NOC(c4cc(Cl)c(F)c(Cl)c4)(C(F)(F)F)C3)c3c2CCCC3)CC1 (stereo not shown) [Example 81, 3-(5-(3,5-dichloro-4-fluorophenyl)-5-(trifluoromethyl)-4,5-dihydroisoxazol-3-yl)-N-(4-oxocyclohexyl)-4,5,6,7-tetrahydrobenzo [c]thiophene-1-carboxamide]",≥ 80%
23,O=C(NC1CCN(CC(F)(F)F)C1=O)c1sc(C2=NOC(c3cc(Cl)c(F)c(Cl)c3)(C(F)(F)F)C2)c2c1CCCC2 (stereo not shown) [Example 82],≥ 80%
24,"O=C(NC1CCOCC1)c1sc(C2=NOC(c3cc(Cl)c(F)c(Cl)c3)(C(F)(F)F)C2)c2c1CCCC2 (stereo not shown) [Example 83, 3-(5-(3,5-dichloro-4-fluorophenyl)-5-(trifluoromethyl)-4,5-dihydro-isoxazol-3-yl)-N-(tetrahydro-2H-pyran-4-yl)-4,5,6,7-tetrahydro-benzo[c]thiophene-1-carboxamide]",≥ 80%

# Same assay, conditions: tested at 300 micromolar, 30 minute immersion, mortality counted after 24 hours, read-out: % Efficacy (percent larval mortality)
row,SMILES,mortality at 300 µM
1,"C#CCNC(=O)CNC(=O)c1sc(C2=NOC(c3sc(Cl)c(Cl)c3Cl)(C(F)(F)F)C2)c2c1CCCC2 (stereo not shown) [Example 74, N-(2-oxo-2-(prop-2-ynylamino)ethyl)-3-(5-(3,4,5-trichloro-thiophen-2-yl)-5-(trifluoromethyl)-4,5-dihydroisoxazol-3-yl)-4,5,6,7-tetrahydro-benzo[c]thiophene-1-carboxamide]",≥ 80%
